One data set concerns Hep 3B cells. Put plainly: Inhibition of Hep 3B cell proliferation (CellTiter-Glo). The class given is cell-based. The conditions noted are these: Homo sapiens, Hep3B.
For the next data set, the system named is SK-HEP-1 cells. The experiment in a line: Inhibition of SK-HEP-1 cell proliferation (CellTiter-Glo). It is filed as cell-based. The note with it: Homo sapiens, read-out: SK-HEP-1 IC50. The gist of the method: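 Cells seeded and allowed to attach 16–24 h, then exposed to serially diluted compound for 72 h at 37 °C, 5% CO2. Viability read by CellTiter-Glo luminescence; IC50 fitted from inhibition rates across concentrations.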

A short description of data set [1]: Pharmacokinetic (PK) analysis in rats. The class given is in vivo, Sprague Dawley (SD) rats. The conditions noted are these: SD rats, single intragastric administration, 5 mg/kg; for Peak Time tmax: (sampling in hours); for AUC(0-t) / AUC(0-inf) / half-life / Cmax / MRT: Sprague-Dawley, rat, plasma, po; for AUC(0-t): read-out: Area Under Curve AUC0-t; for AUC(0-inf): read-out: Area Under Curve AUC0-∞; for half-life: read-out: Half-Time t1/2 (converted); for Cmax: read-out: Plasma Concentration Cmax; for MRT: read-out: Mean Residence Time MRT. Summed up: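 Intravenous blood (0.2 ml) was collected into K2EDTA and centrifuged to obtain plasma. Plasma (40 μL) was protein-precipitated with 160 μL acetonitrile. Compound levels were measured by LC/MS/MS on a C18 column using 0.1% formic acid in water and acetonitrile at 0.8 mL/min.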

The test system of a further data set is Hep 3B cell line tumor. Put plainly: Pharmacodynamics test in vivo, Hep 3B tumor-bearing nude mice. The conditions noted are these: Mus musculus, Hep3B, oral 30 mg/kg, 2 times/day, read-out: Tumor inhibition rate. The procedure: a, A Hep 3B cell line was taken from the cell bank, and the cells were resuscitated with the MEM culture medium (MEM+10% FBS+1% Glu+1% SP). The cells were placed in the cell culture bottle after resuscitation (cell type, date, and the name of the culturing person were marked on the bottle wall) and were incubated in a CO2 Incubator (the incubator temperature was 37° C., and the CO2 concentration was 5%).
b, The cells were passaged after 80-90% of the bottom of the culture bottle was covered by the cells. After passage, the cells were further incubated in the CO2 incubator. The process was repeated until the number of cells met the pharmacodynamic requirements in vivo.
c, The cultured cells were collected and counted by automatic cell counter. According to the counting results, the cells were resuspended with PBS to prepare a cell suspension (density: 7×10^7/mL), which was placed in the ice box for use.
a, Nude mouse was marked with a disposable universal ear tag for mouse and rat before inoculation, and the skin of the inoculated site was disinfected with 75% medical alcohol.
b, At the time of inoculation, the cell suspension was mixed well, 0.1˜1 mL of cell suspension was taken with a 1 mL syringe, after removing air bubbles, and the syringe was placed on an ice bag for use.
c, The nude mice were inoculated successively (the inoculated site was located on the right shoulder of the right back of the nude mice, and inoculated subcutaneously with 0.1 mL of cell suspension).
a, Tumor was measured on Day 14 to Day 16 after inoculation depending on the tumor growth, and tumor size was calculated.
Tumor volume calculation: tumor volume (mm^3)=length (mm)×width (mm)×width (mm)/2
b, According to the size of the tumor, the mice were grouped by random grouping.
c, According to the results of the grouping, the test drug was administered (administration method: oral administration, administration dose: 30 mg/kg, administration volume: 10 mL/kg, administration frequency: 2 times/day, […], vehicle: 0.5% CMC/1% Tween 80).
d, The tumor was measured and weighed twice a week after the test drug was administrated.
e, Animals were euthanized at the end of the test.

The subject of a further data set is HuH-7 cells. Put plainly: Inhibition of HuH-7 cell proliferation (CellTiter-Glo). It is filed as cell-based. The conditions noted are these: Homo sapiens, read-out: HuH-7 IC50. The gist of the method: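 HuH-7 cells plated and left 16–24 h, then exposed to serially diluted compound for 72 h at 37 °C, 5% CO2. Viability read by CellTiter-Glo luminescence. IC50 obtained by curve fitting of inhibition rates.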

Another data set deals with FGFR1 kinase (Homo sapiens (Human), UniProt P11362). Put plainly: Enzymologic experiment of FGFR1 (TR-FRET). It is filed as biochemical. The conditions noted are these: FGFR1 kinase activity. Summed up: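 FGFR1 at 0.1˜5 nM final with substrate peptide 5˜50 nM and ATP 10˜200 μM final, 0.5˜3 h at room temperature. Stopped with EDTA plus labeled antibody for 1 h; TR-FRET signal read at 665 nm, IC50 fitted from inhibition rates.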

The next data set addresses FGFR4 kinase (Homo sapiens (Human), UniProt P22455). The experiment in a line: Enzymologic experiment of FGFR4 (TR-FRET). It is filed as biochemical. The conditions noted are these: FGFR4 kinase activity. On the procedure:
In this experiment, the inhibitory effect of the compounds on FGFR4 kinase activity was tested by a fluorescence resonance energy transfer (TR-FRET) method, and the half maximal inhibitory concentration (IC50) of the compounds on the FGFR4 kinase activity was determined.
2) 1˜5 μL of diluted solution in gradient of the compound was added.
3) 1˜5 μL of a substrate mixture containing substrate polypeptide with a final concentration of 5˜50 nM and ATP with a final concentration of 10˜200 μM was added.
4) The mixture was incubated for 0.5˜3 hours at room temperature.
5) 10 μL of EDTA and a test solution comprising labeled antibody were added, and the plate was incubated for 1 hour at room temperature.
7) The inhibition rates were calculated according to the fluorescence signal values.

Where [2] appears, read: Hep 3B cell proliferation, 72 hours, CellTiter-Glo, read-out: Hep 3B IC50.
The mark [3] stands for this setting: SK-HEP1, SK-HEP-1 cell proliferation, 72 hours, CellTiter-Glo.
Where [4] appears, read: HuH-7 cell proliferation, 72 hours, CellTiter-Glo.
The mark [5] stands for this setting: 72 h, read-out: Hep 3B IC50, Hep 3B cell proliferation, 72 hours, CellTiter-Glo.
[6] abbreviates: 216 h, 9 days of administration.
The mark [7] stands for this setting: 240 h, 10 days of administration.

Where two headings read alike, the source gives them in different places.

The source of these data is patent US11667631B2, “FGFR4 inhibitor, preparation method therefor, and applications thereof” (Jiangsu Hansoh Pharmaceutical Group Co., Ltd., priority 2016, dated 2023).

Chain of FGFR4 kinase (P22455 22-802): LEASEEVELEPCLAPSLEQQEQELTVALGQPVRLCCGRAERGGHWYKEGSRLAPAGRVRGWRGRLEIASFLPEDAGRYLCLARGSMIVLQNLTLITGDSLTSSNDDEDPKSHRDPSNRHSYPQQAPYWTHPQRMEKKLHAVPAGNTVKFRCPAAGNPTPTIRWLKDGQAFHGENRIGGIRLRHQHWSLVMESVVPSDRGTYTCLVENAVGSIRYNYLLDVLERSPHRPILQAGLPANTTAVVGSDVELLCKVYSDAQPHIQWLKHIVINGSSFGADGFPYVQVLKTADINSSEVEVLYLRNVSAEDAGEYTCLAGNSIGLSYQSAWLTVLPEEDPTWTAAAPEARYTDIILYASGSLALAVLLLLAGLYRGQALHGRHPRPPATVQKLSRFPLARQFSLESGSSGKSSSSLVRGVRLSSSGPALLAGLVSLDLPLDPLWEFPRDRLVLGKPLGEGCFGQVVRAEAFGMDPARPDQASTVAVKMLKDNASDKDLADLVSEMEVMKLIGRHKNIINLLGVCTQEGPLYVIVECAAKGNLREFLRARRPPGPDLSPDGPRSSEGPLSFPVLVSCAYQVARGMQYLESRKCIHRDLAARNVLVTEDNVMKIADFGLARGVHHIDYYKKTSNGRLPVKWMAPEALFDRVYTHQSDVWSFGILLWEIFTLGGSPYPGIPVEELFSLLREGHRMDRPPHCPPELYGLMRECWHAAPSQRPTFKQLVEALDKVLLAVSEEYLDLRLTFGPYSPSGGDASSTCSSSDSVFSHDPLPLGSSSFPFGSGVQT
Chain of FGFR1 kinase (P11362 22-822): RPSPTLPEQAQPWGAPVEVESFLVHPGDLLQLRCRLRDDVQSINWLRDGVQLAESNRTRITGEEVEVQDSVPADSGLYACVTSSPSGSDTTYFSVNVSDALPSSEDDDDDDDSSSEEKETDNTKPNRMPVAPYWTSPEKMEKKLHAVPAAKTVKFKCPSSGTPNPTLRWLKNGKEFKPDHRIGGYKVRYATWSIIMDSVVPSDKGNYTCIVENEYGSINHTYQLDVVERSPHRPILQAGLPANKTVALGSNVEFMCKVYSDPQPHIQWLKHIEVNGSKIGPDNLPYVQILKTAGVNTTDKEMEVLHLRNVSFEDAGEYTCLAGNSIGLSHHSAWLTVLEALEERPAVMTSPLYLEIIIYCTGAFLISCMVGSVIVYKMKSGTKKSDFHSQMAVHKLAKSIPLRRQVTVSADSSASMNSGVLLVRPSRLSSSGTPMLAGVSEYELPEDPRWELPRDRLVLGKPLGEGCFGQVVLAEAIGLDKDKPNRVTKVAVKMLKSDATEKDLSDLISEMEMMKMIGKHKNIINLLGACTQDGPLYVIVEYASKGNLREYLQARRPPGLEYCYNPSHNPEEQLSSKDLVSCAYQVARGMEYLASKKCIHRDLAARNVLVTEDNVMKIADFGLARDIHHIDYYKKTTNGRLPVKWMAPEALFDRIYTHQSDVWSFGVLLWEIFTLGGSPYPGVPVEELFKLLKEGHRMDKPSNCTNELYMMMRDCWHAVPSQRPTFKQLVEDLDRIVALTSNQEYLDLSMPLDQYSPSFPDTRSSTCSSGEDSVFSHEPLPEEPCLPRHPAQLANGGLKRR

Turning to `COC[C@@H](C)Nc1cc(NC(=O)N2CCCc3cc(CN4CCCCOC4=O)c(C=O)nc32)ncc1C#N` [Example 29], the IC50 in the data set on Hep 3B cells (setting [2]) turned out to be 0.6 nM. In the data set with SK-HEP-1 cells (setting [3]), the IC50 was greater than 10000 nM. Further, in data set [1], the “Mean Residence Time MRT” value was 2.48 h, the Peak Time tmax amounted to 2 h, the AUC(0-t) is 9460 ng·h/mL and the AUC(0-inf) was 9460 ng·h/mL. Also, in data set [1], the half-life was 1.27 h and the Cmax was found to be 3380 ng/mL. For the same compound, the inhibition in vivo at 30 mg/kg in the data set with Hep 3B cell line tumor (336 h, 14 days of administration) came out at 182%. Further, the IC50 in the data set with HuH-7 cells (setting [4]) was determined as 2.6 nM.

Regarding `CO[C@H]1CCC[C@@H]1Nc1cc(NC(=O)N2CCCc3cc(CN4CCOCC4=O)c(C=O)nc32)ncc1C#N` [Example 59, N-(5-Cyano-4-(((1S,2S)-2-methoxycyclopentyl)amino)pyridin-2-yl)-7-formyl-6-((3-carbonylmorpholino)methyl)-3,4-dihydro-1,8-naphthyridin-1(2H)-carboxamide], the IC50 in the data set with Hep 3B cells (setting [5]) turned out to be 8.6 nM. The compound also registered an IC50 at FGFR1 kinase greater than 10000 nM. For the same compound, the IC50 with SK-HEP-1 cells (SK-HEP1, 72 h) was greater than 10000 nM. In data set [1], the Peak Time tmax amounted to 2 h, the AUC(0-t) was 1260 ng·h/mL, the AUC(0-inf) is 1260 ng·h/mL and the half-life is 0.86 h. Besides, in data set [1], the MRT was 2.23 h and the Cmax was 2060 ng/mL. The inhibition in vivo at 30 mg/kg with Hep 3B cell line tumor (setting [6]) came out at 86.7%. For the same compound, the IC50 with HuH-7 cells (Huh-7, 72 h) amounted to 18.7 nM.

With `N#Cc1cnc(NC(=O)N2CCCc3cc(CN4CCOCC4=O)c(C=O)nc32)cc1S[C@@H]1CCOC1` [Example 56, (R)-N-(5-Cyano-4-((tetrahydrofuran-3-yl)thio)pyridin-2-yl)-7-formyl-6-((3-carbonylmorpholino)methyl)-3,4-dihydro-1,8-naphthyridin-1(2H)-carboxamide], the IC50 with Hep 3B cells (setting [5]) is 22.7 nM. Moreover, at FGFR1 kinase, the IC50 is greater than 10000 nM. The IC50 in the data set on SK-HEP-1 cells (SK-HEP1, 72 h) was greater than 10000 nM. Moreover, in data set [1], the Peak Time tmax was determined as 4 h, the AUC(0-t) is 6650 ng·h/mL, the AUC(0-inf) was determined as 6780 ng·h/mL and the half-life was 0.96 h. In addition, the Cmax in data set [1] stood at 1640 ng/mL. For the same compound, the inhibition in vivo at 30 mg/kg with Hep 3B cell line tumor (setting [6]) was determined as 46.4%. In the data set with HuH-7 cells (Huh-7, 72 h), the IC50 turned out to be 50.1 nM.

With `CO[C@H]1COCC1Oc1cc(NC(=O)N2CCCc3cc(CN4CCOCC4=O)c(C=O)nc32)ncc1C#N` (stereo partly drawn) [Example 67, N-(5-Cyano-4-(((3,4)-trans-4-methoxytetrahydrofuran-3-yl)oxy)pyridin-2-yl)-7-formyl-6-((3-carbonylmorpholino)methyl)-3,4-dihydro-1,8-naphthyridin-1(2H)-carboxamide], the IC50 with Hep 3B cells (setting [2]) was 16.7 nM. The compound further had an IC50 on FGFR1 kinase greater than 10000 nM. Besides, the IC50 in the data set with SK-HEP-1 cells (setting [3]) is greater than 10000 nM. Also, in data set [1], the Peak Time tmax worked out at 4 h, the AUC(0-t) was 3990 ng·h/mL, the AUC(0-inf) worked out at 4070 ng·h/mL and the half-life is 0.88 h. In addition, in data set [1], the MRT was determined as 4.17 h and the Cmax is 2840 ng/mL. Moreover, at FGFR4 kinase, the IC50 came out at 2.31 nM. For the same compound, the IC50 in the data set with HuH-7 cells (setting [4]) came out at 29.5 nM.

On to `COc1ccccc1Nc1cc(NC(=O)N2CCCc3cc(CN4CCOCC4=O)c(C=O)nc32)ncc1C#N` [Example 8, N-(5-Cyano-4-((2-methoxyphenyl)amino)pyridin-2-yl)-7-formyl-6-((3-carbonylmorpholino)methyl)-3,4-dihydro-1,8-naphthyridin-1(2H)-carboxamide], for which the IC50 with Hep 3B cells (setting [2]) came to 0.9 nM. The IC50 against FGFR1 kinase is greater than 10000 nM. In addition, the IC50 in the data set with SK-HEP-1 cells (setting [3]) is greater than 10000 nM. Moreover, in data set [1], the Peak Time tmax stood at 2 h, the AUC(0-t) turned out to be 4790 ng·h/mL, the AUC(0-inf) came out at 4940 ng·h/mL and the half-life is 1.16 h. Besides, in data set [1], the MRT worked out at 3.74 h and the Cmax turned out to be 2060 ng/mL. At FGFR4 kinase, the IC50 amounted to 3.4 nM. Moreover, in the data set on HuH-7 cells (setting [4]), the IC50 worked out at 8.6 nM.

`COC[C@@H](C)Oc1cc(NC(=O)N2CCCc3cc(CN4CCCOCC4=O)c(C=O)nc32)ncc1C#N` [Example 28, (R)-N-(5-Cyano-4-((1-methoxypropan-2-yl)oxy)pyridin-2-yl)-7-formyl-6-((3-carbonyl-1,4-oxazepin-4-yl)methyl)-3,4-dihydro-1,8-naphthyridin-1(2H)-carboxamide]: the inhibition in vivo at 30 mg/kg in the data set on Hep 3B cell line tumor (setting [6]) turned out to be 74.3%.

As for `COCCNc1cc(NC(=O)N2CCCc3cc(CN4CCCCOC4=O)c(C=O)nc32)ncc1C#N` [Example 23, N-(5-Cyano-4-((2-methoxyethyl)amino)pyridin-2-yl)-7-formyl-6-((2-carbonyl-1,3-oxazepin-3-yl)methyl)-3,4-dihydro-1,8-naphthyridin-1(2H)-carboxamide], the IC50 in the data set with Hep 3B cells (setting [5]) amounted to 4.6 nM. Moreover, in the data set with SK-HEP-1 cells (SK-HEP1, 72 h), the IC50 was greater than 10000 nM. In data set [1], the Peak Time tmax came to 2 h, the AUC(0-t) was found to be 9110 ng·h/mL, the AUC(0-inf) worked out at 9110 ng·h/mL and the half-life was 1.02 h. In addition, in data set [1], the MRT was found to be 3.5 h and the Cmax was found to be 2310 ng/mL. In addition, the inhibition in vivo at 30 mg/kg with Hep 3B cell line tumor (setting [7]) is 89.8%. The IC50 in the data set on HuH-7 cells (Huh-7, 72 h) worked out at 6.7 nM.

As for `COC1(CNc2cc(NC(=O)N3CCCc4cc(CN5CCCOCC5=O)c(C=O)nc43)ncc2C#N)CC1` [Example 25, N-(5-Cyano-4-(((1-methoxycyclopropyl)methyl)amino)pyridin-2-yl)-7-formyl-6-((3-carbonyl-1,4-oxazepin-4-yl)methyl)-3,4-dihydro-1,8-naphthyridin-1(2H)-carboxamide], the inhibition in vivo at 30 mg/kg in the data set with Hep 3B cell line tumor (setting [7]) was determined as 68.4%.

As for `CO[C@H]1CCN(c2cc(NC(=O)N3CCCc4cc(CN5CCN(C)CC5=O)c(C=O)nc43)ncc2C#N)C1` [Example 63, (S)-N-(5-Cyano-4-(3-methoxypyrrolidin-1-yl)pyridin-2-yl)-7-formyl-6-((4-methyl-2-carbonylpiperazin-1-yl)methyl)-3,4-dihydro-1,8-naphthyridin-1(2H)-carboxamide], in the data set with Hep 3B cells (setting [2]), the IC50 stood at 13.8 nM. Moreover, the IC50 against FGFR1 kinase was greater than 10000 nM. Also, in the data set with SK-HEP-1 cells (setting [3]), the IC50 is greater than 10000 nM. Further, in data set [1], the Peak Time tmax was 2 h, the AUC(0-t) is 4990 ng·h/mL, the AUC(0-inf) was 4030 ng·h/mL and the half-life is 0.91 h. In data set [1], the MRT amounted to 2.7 h and the Cmax was 2060 ng/mL. This compound also had an IC50 on FGFR4 kinase of 2.49 nM. Further, the IC50 in the data set with HuH-7 cells (setting [4]) was 28.9 nM.
